Data: ChEMBL document CHEMBL3046513, “Synthesis, characterization, and biological evaluation of some N-aryl hydrazones and their 2,3-disubstituted-4-thiazolidinone derivatives” (Med Chem Res, 2013)
Converted amounts (≈) assume the structure as drawn.

Legend:
Assay type in all cases: functional
[1] = test system: Radical scavenging activity; experiment: Antioxidant activity assessed as inhibition of DPPH radical generation at 800 ug/mL after 20 min by spectrophotometric analysis relative to control
[2] = test system: Radical scavenging activity; experiment: Antioxidant activity assessed as inhibition of DPPH radical generation at 400 ug/mL after 20 min by spectrophotometric analysis relative to control
[3] = test system: Radical scavenging activity; experiment: Antioxidant activity assessed as inhibition of DPPH radical generation at 200 ug/mL after 20 min by spectrophotometric analysis relative to control
Candida albicans = experiment: Antifungal activity against Candida albicans assessed as growth inhibition by serial plate dilution method
Bacillus cereus = experiment: Antibacterial activity against Bacillus cereus assessed as growth inhibition by serial plate dilution method
Pseudomonas aeruginosa = experiment: Antibacterial activity against Pseudomonas aeruginosa ATCC 27853 assessed as growth inhibition by serial plate dilution method
Staphylococcus aureus = experiment: Antibacterial activity against Staphylococcus aureus ATCC 25923 assessed as growth inhibition by serial plate dilution method
Escherichia coli = experiment: Antibacterial activity against Escherichia coli ATCC 25922 assessed as growth inhibition by serial plate dilution method
Mus musculus [4] = experiment: Analgesic activity in Mus musculus […] albino (mouse) assessed as time taken to tail withdrawl at 100 mg/kg, po administered through intragastric tube after 180 min by tail flick test (reference value: 1.363 +/- 0.1297 secs)
Mus musculus [5] = experiment: Analgesic activity in Mus musculus […] albino (mouse) assessed as time taken to tail withdrawl at 100 mg/kg, po administered through intragastric tube after 120 min by tail flick test (reference value: 1.363 +/- 0.1297 secs)
Mus musculus [6] = experiment: Analgesic activity in Mus musculus […] albino (mouse) assessed as time taken to tail withdrawl at 100 mg/kg, po administered through intragastric tube after 60 min by tail flick test (reference value: 1.363 +/- 0.1297 secs)
Rattus norvegicus [7] = experiment: Anti-inflammatory activity in Rattus norvegicus (rat) assessed as decrease in carrageenan-induced paw edema at 100 mg/kg, po administered 30 min prior to carrageenan challenge measured after 180 min (reference value: 2.275 +/- 0.1181 mm)
Rattus norvegicus [8] = experiment: Anti-inflammatory activity in Rattus norvegicus (rat) assessed as decrease in carrageenan-induced paw edema at 100 mg/kg, po administered 30 min prior to carrageenan challenge measured after 120 min (reference value: 2.375 +/- 0.1436 mm)
Rattus norvegicus [9] = experiment: Anti-inflammatory activity in Rattus norvegicus (rat) assessed as decrease in carrageenan-induced paw edema at 100 mg/kg, po administered 30 min prior to carrageenan challenge measured after 60 min (reference value: 2.175 +/- 0.1797 mm)

Row | SMILES | inhibition [1] | inhibition [2] | inhibition [3] | MIC (Candida albicans) | MIC (Bacillus cereus) | MIC (Pseudomonas aeruginosa) | MIC (Staphylococcus aureus) | MIC (Escherichia coli) | Time (Mus musculus [4]) | Time (Mus musculus [5]) | Time (Mus musculus [6]) | Activity (Rattus norvegicus [7]) | Activity (Rattus norvegicus [8]) | Activity (Rattus norvegicus [9])
1 | O=C1O[C@H]([C@@H](O)CO)C(O)=C1O | 96% | 95% | 87.6% |  |  |  |  |  |  |  |  |  |  | 
2 | COc1ccc(Br)c(C(=O)N/N=C\c2ccccc2OC)c1 |  |  |  | 6.25 µg/mL (≈ 17.2 µM) | 12.5 µg/mL (≈ 34.4 µM) | 3.12 µg/mL (≈ 8.6 µM) | 6.25 µg/mL (≈ 17.2 µM) | 12.5 µg/mL (≈ 34.4 µM) |  |  |  |  |  | 
3 | COc1ccc(/C=N\NC(=O)c2cc(OC)ccc2Br)c(OC)c1 |  |  |  | 6.25 µg/mL (≈ 15.9 µM) | 12.5 µg/mL (≈ 31.8 µM) | 6.25 µg/mL (≈ 15.9 µM) | 12.5 µg/mL (≈ 31.8 µM) | 6.25 µg/mL (≈ 15.9 µM) |  |  |  |  |  | 
4 | COc1ccc(Br)c(C(=O)N/N=C\c2ccc(F)cc2)c1 |  |  |  | 12.5 µg/mL (≈ 35.6 µM) | 6.25 µg/mL (≈ 17.8 µM) | 6.25 µg/mL (≈ 17.8 µM) | 6.25 µg/mL (≈ 17.8 µM) | 12.5 µg/mL (≈ 35.6 µM) |  |  |  |  |  | 
5 | COc1ccc(Br)c(C(=O)N/N=C\c2cccc3cc(OC)ccc23)c1 |  |  |  | 12.5 µg/mL (≈ 30.2 µM) | 6.25 µg/mL (≈ 15.1 µM) | 12.5 µg/mL (≈ 30.2 µM) | 6.25 µg/mL (≈ 15.1 µM) | 12.5 µg/mL (≈ 30.2 µM) |  |  |  |  |  | 
6 | COc1ccc(Br)c(C(=O)N/N=C/C2=C(Cl)c3ccccc3C(c3ccc(Cl)c(Cl)c3)C2)c1 (stereo not given) |  |  |  | 6.25 µg/mL (≈ 11.1 µM) | 12.5 µg/mL (≈ 22.1 µM) | 6.25 µg/mL (≈ 11.1 µM) | 12.5 µg/mL (≈ 22.1 µM) | 12.5 µg/mL (≈ 22.1 µM) |  |  |  |  |  | 
7 | COc1ccc(Br)c(C(=O)NN2C(=O)CSC2c2ccccc2Cl)c1 (stereo not given) | 72.9% | 65.9% | 59.3% | 6.25 µg/mL (≈ 14.1 µM) | 6.25 µg/mL (≈ 14.1 µM) | 3.12 µg/mL (≈ 7.07 µM) | 6.25 µg/mL (≈ 14.1 µM) | 12.5 µg/mL (≈ 28.3 µM) | 2.5 s | 2.125 s | 1.963 s | 2.075 mm | 1.975 mm | 1.85 mm
8 | COc1ccc(Br)c(C(=O)N/N=C\c2ccc(Cl)cc2)c1 |  |  |  | 3.12 µg/mL (≈ 8.5 µM) | 12.5 µg/mL (≈ 34 µM) | 3.12 µg/mL (≈ 8.5 µM) | 6.25 µg/mL (≈ 17 µM) | 6.25 µg/mL (≈ 17 µM) |  |  |  |  |  | 
9 | COc1ccc(Br)c(C(=O)N/N=C\c2ccc(O)cc2)c1 |  |  |  | 3.12 µg/mL (≈ 8.95 µM) | 6.25 µg/mL (≈ 17.9 µM) | 6.25 µg/mL (≈ 17.9 µM) | 12.5 µg/mL (≈ 35.8 µM) | 12.5 µg/mL (≈ 35.8 µM) |  |  |  |  |  | 
10 | COc1ccc(Br)c(C(=O)N/N=C\c2ccc(C)cc2)c1 |  |  |  | 6.25 µg/mL (≈ 18 µM) | 12.5 µg/mL (≈ 36 µM) | 12.5 µg/mL (≈ 36 µM) | 12.5 µg/mL (≈ 36 µM) | 6.25 µg/mL (≈ 18 µM) |  |  |  |  |  | 
11 | COc1ccc(Br)c(C(=O)N/N=C\c2ccc(O)c(OC)c2)c1 |  |  |  | 12.5 µg/mL (≈ 33 µM) | 6.25 µg/mL (≈ 16.5 µM) | 12.5 µg/mL (≈ 33 µM) | 12.5 µg/mL (≈ 33 µM) | 6.25 µg/mL (≈ 16.5 µM) |  |  |  |  |  | 
12 | COc1ccc(Br)c(C(=O)NN2C(=O)CSC2c2ccc(O)cc2)c1 (stereo not given) | 58.3% | 58% | 57.8% | 6.25 µg/mL (≈ 14.8 µM) | 12.5 µg/mL (≈ 29.5 µM) | 6.25 µg/mL (≈ 14.8 µM) | 12.5 µg/mL (≈ 29.5 µM) | 6.25 µg/mL (≈ 14.8 µM) | 2.532 s | 2.775 s | 2.675 s | 2.048 mm | 1.899 mm | 1.89 mm
13 | COc1ccc(Br)c(C(=O)NN2C(=O)CSC2c2ccccc2)c1 (stereo not given) | 41.6% | 18.1% | 4.3% | 6.25 µg/mL (≈ 15.3 µM) | 25 µg/mL (≈ 61.4 µM) | 12.5 µg/mL (≈ 30.7 µM) | 25 µg/mL (≈ 61.4 µM) | 12.5 µg/mL (≈ 30.7 µM) | 2.425 s | 3.563 s | 3.675 s | 1.75 mm | 1.65 mm | 1.575 mm
14 | COc1ccc(/C=N\NC(=O)c2cc(OC)ccc2Br)cc1 |  |  |  | 6.25 µg/mL (≈ 17.2 µM) | 12.5 µg/mL (≈ 34.4 µM) | 3.12 µg/mL (≈ 8.6 µM) | 12.5 µg/mL (≈ 34.4 µM) | 12.5 µg/mL (≈ 34.4 µM) |  |  |  |  |  | 
15 | CC1(C)S[C@@H]2[C@H](NC(=O)Cc3ccccc3)C(=O)N2[C@H]1C(=O)O [PENICILLIN G] |  |  |  |  | 0.12 µg/mL (≈ 0.359 µM) | 0.12 µg/mL (≈ 0.359 µM) | 0.12 µg/mL (≈ 0.359 µM) | 0.12 µg/mL (≈ 0.359 µM) |  |  |  |  |  | 
16 | OC(Cn1cncn1)(Cn1cncn1)c1ccc(F)cc1F [FLUCONAZOLE] |  |  |  | 8 µg/mL (≈ 26.1 µM) |  |  |  |  |  |  |  |  |  | 
